Legend:
Assay type in all cases: biochemical
ENPP1 [1] = molecular target: T1, ENPP1 (Homo sapiens, UniProt P22413); test: Indirect quantitation of 2',3'-cGAMP hydrolysis (AMP-Glo Assay kit); conditions: cGAMP substrate; Ki from IC50 by Cheng-Prusoff; read-out: ENPP1 Inhibition -cGAMP: Ki
T1 sequence (P22413 1-925): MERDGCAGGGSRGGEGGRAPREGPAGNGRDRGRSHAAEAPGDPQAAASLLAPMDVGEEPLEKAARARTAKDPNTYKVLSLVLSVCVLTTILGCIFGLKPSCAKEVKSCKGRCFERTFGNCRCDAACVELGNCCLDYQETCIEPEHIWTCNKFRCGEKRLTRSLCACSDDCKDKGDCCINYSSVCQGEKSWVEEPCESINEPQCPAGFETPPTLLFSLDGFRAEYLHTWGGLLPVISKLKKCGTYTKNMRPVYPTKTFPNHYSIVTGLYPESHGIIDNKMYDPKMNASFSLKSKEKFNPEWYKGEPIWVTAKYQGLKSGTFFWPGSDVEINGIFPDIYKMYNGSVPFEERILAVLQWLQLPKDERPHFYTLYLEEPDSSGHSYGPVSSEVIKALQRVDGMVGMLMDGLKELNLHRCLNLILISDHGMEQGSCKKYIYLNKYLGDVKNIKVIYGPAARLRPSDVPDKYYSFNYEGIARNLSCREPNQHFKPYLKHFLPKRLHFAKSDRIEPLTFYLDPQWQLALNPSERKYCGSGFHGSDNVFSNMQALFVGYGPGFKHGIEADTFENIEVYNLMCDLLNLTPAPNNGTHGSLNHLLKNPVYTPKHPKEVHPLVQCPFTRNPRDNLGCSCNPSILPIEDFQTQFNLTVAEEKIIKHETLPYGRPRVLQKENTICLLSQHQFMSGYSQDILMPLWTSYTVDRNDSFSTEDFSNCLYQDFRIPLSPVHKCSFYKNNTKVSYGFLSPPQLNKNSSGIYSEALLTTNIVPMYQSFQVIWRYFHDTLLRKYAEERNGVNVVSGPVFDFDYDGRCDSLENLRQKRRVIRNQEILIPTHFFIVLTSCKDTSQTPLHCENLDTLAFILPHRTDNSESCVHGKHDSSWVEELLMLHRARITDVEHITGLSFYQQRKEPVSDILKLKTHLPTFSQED

ENPP1 [2] = molecular target: T1, ENPP1; test: ENPP1 enzyme assay with AMP-pNP substrate (hydrolysis of ATP analog); conditions: AMP-pNP substrate (ATP analog); Ki from IC50 by Cheng-Prusoff; read-out: ENPP1 Inhibition _AMP-pNP: Ki
Summary of the method: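 Human recombinant ENPP1 (60 ng/well) with 300 µM AMP-pNP in 50 mM Tris-HCl pH 8.5, 250 mM NaCl, 0.5 mM CaCl2, 1 µM ZnCl2, 0.1% DMSO, 20 min at 37 °C.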

ENPP1 [3] = molecular target: T1, ENPP1; test: Substrate selectivity ratio, inhibition of cGAMP hydrolysis versus ATP hydrolysis; conditions: ratio Ki AMP-pNP / Ki cGAMP
Experimental: The selectivity ratios for inhibition of cGAMP hydrolysis versus ATP hydrolysis were then calculated as follows: […]

Row | Compound | Ki (ENPP1 [1]) | Ki (ENPP1 [2]) | Substrate Selectivity: Ki_AMP-pNP/Ki_cGAMP (ENPP1 [3])
1 | COc1cc2nccc(OC3CCC(NS(N)(=O)=O)C3)c2cc1OC (stereo not drawn) [Example 213, N-(3-((6,7-dimethoxyquinolin-4-yl)oxy)cyclopentyl)sulfamide] | < 100 nM | > 1000 nM | 33.0
2 | COc1ccc2ncnc(N3CCC(CCNS(N)(=O)=O)CC3)c2c1 [Example 199, N-(2-(1-(6-methoxyquinazolin-4-yl)piperidin-4-yl)ethyl)sulfamide] | < 100 nM | 100 to 1000 nM | 33.6
3 | COc1cc2ncc(C#N)c(Nc3ccc(NS(N)(=O)=O)cc3)c2cc1OC [Example 175, N-(4-((3-cyano-6,7-dimethoxyquinolin-4-yl)amino)phenyl)sulfamide] | < 100 nM | > 1000 nM | >63.3
4 | COc1cc2c(N3CCC(CCNS(N)(=O)=O)CC3)c(C#N)cnc2cn1 [Example 216, N-(2-(1-(3-cyano-6-methoxy-1,7-naphthyridin-4-yl)piperidin-4-yl)ethyl)sulfamide] | < 100 nM | > 1000 nM | > 72.3
5 | COc1cc2ncnc(-c3ccc4c(c3)CCN(S(N)(=O)=O)C4)c2cc1OC [Example 121, 6-(6,7-dimethoxyquinazolin-4-yl)-3,4-dihydroisoquinoline-2(1H)-sulfonamide] | < 100 nM | > 1000 nM | >61.5
6 | COc1ccc2c(-c3ccc(CNS(N)(=O)=O)c(F)c3)ccnc2c1 [Example 62, N-(2-fluoro-4-(7-methoxyquinolin-4-yl)benzyl)sulfamide] | < 100 nM | < 100 nM | 16.1
7 | COc1cc2nccc(Nc3ccc(NS(N)(=O)=O)cc3)c2cc1OC [Example 134, N-(4-((6,7-dimethoxyquinolin-4-yl)amino)phenyl)sulfamide] | < 100 nM | > 1000 nM | >69.1
8 | COc1ccc2c(-c3ccc(CNS(N)(=O)=O)cc3)ccnc2n1 [Example 63, N-(4-(7-methoxy-1,8-naphthyridin-4-yl)benzyl)sulfamide] | < 100 nM | < 100 nM | 28.0
9 | COc1cc2ncnc(N3CCC(CCS(N)(=O)=O)CC3)c2cc1OC [Example 164, 2-(1-(6,7-dimethoxyquinazolin-4-yl)piperidin-4-yl)ethane-1-sulfonamide] | < 100 nM | < 100 nM | 14.8
10 | COc1cc2nccc(N3CCC(CN(C4CC4)S(N)(=O)=O)CC3)c2cc1OC [Example 212, N-cyclopropyl-N-((1-(6,7-dimethoxyquinolin-4-yl)piperidin-4-yl)methyl)sulfamide] | < 100 nM | > 1000 nM | > 46.1
11 | COc1ccc2c(Oc3ccc(NS(N)(=O)=O)c(Cl)c3)ccnc2c1 [Example 75, N-(2-chloro-4-((7-methoxyquinolin-4-yl)oxy)phenyl)sulfamide] | < 100 nM | 100 to 1000 nM | 41.3
12 | COc1cc2ncnc(N3CCC(CCN(O)C=O)CC3)c2cc1OC [Example 219, N-(2-(1-(6,7-dimethoxyquinazolin-4-yl)piperidin-4-yl)ethyl)-N-hydroxyformamide] | < 100 nM | 100 to 1000 nM | 26.4

Continued, values first:

Row | Ki (ENPP1 [1]) | Ki (ENPP1 [2]) | Substrate Selectivity: Ki_AMP-pNP/Ki_cGAMP (ENPP1 [3]) | Compound
13 | 100 to 1000 nM | > 1000 nM | >89 | COc1ccc2c(Oc3ccc(S(N)(=O)=O)cc3)c(C(F)(F)F)cnc2c1 [Example 377, 4-((7-methoxy-3-(trifluoromethyl)quinolin-4-yl)oxy) benzenesulfonamide]
14 | < 100 nM | 100 to 1000 nM | 38.5 | COc1cc2ncnc(N3CCC(CNS(N)(=O)=O)CC3)c2cc1OC [Example 339, N-((1-(6,7-dimethoxyquinazolin-4-yl)piperidin-4-yl)methyl)sulfamide]
15 | < 100 nM | 100 to 1000 nM | 41.6 | COc1cc2nccc(Oc3ccc(S(N)(=O)=O)cc3)c2cc1OC [Example 303, 4-((6,7-dimethoxyquinolin-4-yl)oxy)benzenesulfonamide]
16 | < 100 nM | 100 to 1000 nM | 13.7 | COc1ccc2c(Oc3ccc(NS(N)(=O)=O)cc3)c(C)cnc2c1 [Example 300, N-(4-((7-methoxy-3-methylquinolin-4-yl)oxy)phenyl)sulfamide]
17 | < 100 nM | > 1000 nM | >35.2 | COc1cc2ncnc(NC3CCC(NS(N)(=O)=O)CC3)c2cc1OC (stereo not drawn) [Example 272, N-(4-((6,7-dimethoxyquinazolin-4-yl)amino)cyclohexyl)sulfamide]
18 | < 100 nM | 100 to 1000 nM | 19.5 | COc1ccc2c(Oc3ccc(NS(N)(=O)=O)c(F)c3)ccnc2c1 [Example 297, N-(2-fluoro-4-((7-methoxyquinolin-4-yl)oxy)phenyl)sulfamide]
19 | < 100 nM | 100 to 1000 nM | 51 | COc1cc2nccc(Oc3ccc(S(N)(=O)=O)cc3)c2cn1 [Example 393, 4-((7-methoxy-1,6-naphthyridin-4-yl)oxy)benzenesulfonamide]
20 | < 100 nM | 100 to 1000 nM | 49 | COc1ccc2c(N3CCC4(CC3)CCN(S(N)(=O)=O)C4)ccnc2c1 [Example 363, 8-(7-methoxyquinolin-4-yl)-2,8-diazaspiro[4.5]decane-2-sulfonamide]
21 | 100 to 1000 nM | > 1000 nM | > 7.1 | NS(=O)(=O)NCCC1CCN(c2ncnc3c2CCNC3)CC1 [Example 232, N-(2-(1-(5,6,7,8-tetrahydropyrido[3,4-d]pyrimidin-4-yl)piperidin-4-yl)ethyl)sulfamide]
22 | < 100 nM | > 1000 nM | >138 | COc1ccc2c(-c3ccc(CNS(N)(=O)=O)c(C)c3)ccnc2c1 [Example 374, N-(4-(7-methoxyquinolin-4-yl)-2-methylbenzyl) sulfamide]
23 | < 100 nM | > 1000 nM | >81.3 | COc1ccc2ncc(C#N)c(-c3ccc(CNS(N)(=O)=O)cc3)c2c1 [Example 240, N-(4-(3-cyano-6-methoxyquinolin-4-yl)benzyl)sulfamide]
24 | < 100 nM | 100 to 1000 nM | 53.0 | COc1ccc2c(-c3ccc(CNS(N)(=O)=O)cc3)c(C#N)cnc2c1 [Example 244, N-(4-(3-cyano-7-methoxyquinolin-4-yl)benzyl)sulfamide]
25 | < 100 nM | 100 to 1000 nM | 22.5 | COc1ccc2c(NCc3ccc(NS(N)(=O)=O)cc3)ccnc2c1 [Example 267, N-(4-(((7-methoxyquinolin-4-yl)amino)methyl)phenyl)sulfamide]
26 | < 100 nM | 100 to 1000 nM | 28.2 | COc1ccc2c(Oc3ccc(CS(N)(=O)=O)cc3)ccnc2c1 [Example 312, (4-((7-methoxyquinolin-4-yl)oxy)phenyl)methanesulfonamide]
27 | < 100 nM | > 1000 nM | >32 | COc1ccc2c(-c3ccc4c(c3)CN(S(N)(=O)=O)CC4)c(C)cnc2c1 [Example 371, 7-(7-methoxy-3-methylquinolin-4-yl)-3,4-dihydroisoquinoline-2(1H)-sulfonamide]
28 | < 100 nM | > 1000 nM | >31.1 | COc1cc2nccc(Oc3ccc(N(O)C=O)cc3)c2cc1OC [Example 292, N-(4-((6,7-dimethoxyquinolin-4-yl)oxy)phenyl)-N-hydroxyformamide]
29 | < 100 nM | < 100 nM | 32 | COc1ccc2c(Oc3ccc(S(N)(=O)=O)cc3)ccnc2n1 [Example 361, 4-(7-Methoxy-[1,8]naphthyridin-4-yl-oxy)-benzene sulfonamide]
